From patent US11168052B2, “Carbamate derivative compounds, processes for preparing them and their uses” (BIO-PHARM SOLUTIONS CO., LTD., priority 2016, dated 2021)

Legend:
[1] = test system: BIC-induced clonic seizure in mice; assay: Chemical induced seizure model (BIC); format: in vivo, ICR mice; details: Mus musculus, ip
Description: Male ICR mice (purchased from Orient Bio Inc. Korea) of body weight 19-26 g were used for these studies. The test materials were administered intraperitoneal route in a volume of 10 ul/g weight. Pharmacological effects of all the test materials were evaluated to compared test groups (n=6) with a control group (n=6). Control group was administrated vehicle, only. The peak time was determined by administration test material's random dose for 0.5 and 1 hour. The time that the most protect was defined peak time and ED50 was determined by other dose administration at peak time. BIC was dissolved in 0.9% saline and administered subcutaneously (s.c.) at its CD97 (convulsive dose 97%) the dose of BIC that produced clonic seizures in 97% into a loose fold of skin in the midline of the neck in a volume of 10 ul/g body weight. The animals were then transferred to observation cages and observed continuously for 30 min. Clonic seizure was elicited in approximately 95% of control group. Protection was defined as complete absence of a clonic seizure over the 30-min observation period. The time that the most protect was defined peak time and ED50 was determined by other dose administration at peak time. The effective dose of compound necessary to protect against seizures to 50% of controls (i.e., ED50) was determined by log probit analysis using Excel 2007 (Microsoft).

[2] = test system: PTZ (Pentylenetetrazol)-induced clonic seizure in mice; assay: Anti-epilepsy activity, scPTZ test in mouse; format: in vivo, ICR mice; details: ip
Description: In this experiment, each test compound sample was formulated as described in Biological Experimental Example 1, and administered intraperitoneally to the test animals (mice; ICR or Rat; SD); Experimental animals, male ICR mice and male SD rats, were purchased from OrientBio or Nara biotech, Korea, and housed 4-5 mice per a cage for 4-5 days. The range of mice body weight was used between 19 and 26 grams and range of rats body weight was used between 100 and 130 grams. After Peak time (0.5, 1, 2 and 4 hr) from the administration, PTZ (Pentylenetetrazol) was administered subcutaneously in the concentration capable of inducing 97% intermittent convulsions (mice: 100-110 mg/kg?bw, 10 μl/g, or rats: 90-110 mg/kg?bw, 2 μl/g). If clonic seizure was not observed for at least 30 minutes in the PTZ administered animal, it can be considered that the test compound has anti-epilepsy activity. The median effective dose (ED50) is determined using 6 animals per a concentration (total three different concentrations), and calculated by Litchfield and Wicoxon log-probit method which is a dose-response relationship.

Work on `NC(=O)O[C@@H]1CCc2cccc(Cl)c2[C@@H]1O` [Example 1, (1S, 2R)-8-chloro-1-hydroxy-1,2,3,4-tetrahydronaphthalen-2-yl carbamate] yielded an ED50 [1] of 28.9 mg/kg and an ED50 [2] of 12.5 mg/kg.
